Source: patent US8551997B2, “Structural-based inhibitors of the glutathione binding site in aldose reductase, methods of screening therefor and methods of use” (The Board of Regents of the University of Texas System, priority 2004, dated 2013)
Where two headings read alike, the source gives them in different places.

Columns and labels:
HT29 cells [1] = assay: PGE2 assay in HT29 cells; type: cell-based; conditions: inhibitor alone
Description: Caco-2 cells were plated in 6 well plates at a density of 2×10^5 cells/well. After 24 hours, the medium was replaced with fresh medium containing 0.1% serum with or without, sorbinil (20 μM) followed by treatment with either 10 ng/ml BFGF or PDGF, for another 24 h. HT29 cells were plated in 6 well plate at a density of 2×10^5 cells/well. After 24 hours, medium was replaced with serum-free medium with or without, sorbinil or zopolrestat (20 μM) followed by treatment with either EGF (5 ng/ml) or BFGF (10 ng/ml) for another 24 h. The medium from each cell lines was collected from each well and analyzed for PGE2 by using an Enzyme Immuno Assay kit according to the manufacturer's instructions (Cayman Chemical Co., Inc.).
Briefly, 50 μl of diluted standard/sample were pipetted into a pre-coated goat polyclonal anti-mouse IgG 96-well plate. Aliquots (50 μl) of a PGE2 monoclonal antibody and PGE2 acetylcholine esterase (AchE) conjugate, (PGE2 tracer) were added to each well and allowed to incubate at 4° C. for 24 h. After incubation, the wells were washed five times with wash buffer containing 0.05% Tween-20, followed by the addition of 200 μl of Ellman's reagent containing acetylthiocholine and 5,5′-dithio-bis-(2-nitrobenzoic acid). Samples were read after 60 min at 412 nm with an ELISA reader. […]

HT29 cells [2] = assay: HT29 cell proliferation, MTT assay; type: cell-based; conditions: inhibitor alone
Description: HT29 cells were grown to confluence in McCoy's medium and harvested and plated 2,500 per well in a 96-well plate. Subconfluent cells were growth arrested in 0.1% FBS with or without AR inhibitor sorbinil or zopolrestat (20 μM). After 24 hours, EGF (5 ng/ml) or BFGF (10 ng/ml) was added to the medium and the cells were incubated for another 24 hours. Cells incubated with the AR inhibitors alone served as control. Cell viability was determined by an MTT assay.

BALB/C mice = assay: Azoxymethane-induced colon carcinogenesis, ACF analysis; type: in vivo, mouse; conditions: 9 weeks
Description: Approximately six weeks old mice were divided into 4 groups (5 mice/group). Mice in groups 3 and 4 were treated with azoxymethane in sterile saline, at a dose of 10 mg/kg body weight i.p. once a week, for 3 weeks. In group 4, mice were treated with AR inhibitor sorbinil (25 mg/kg body weight per day) for entire period after 1 week from the first azoxymethane injection. Mice in groups 1 and 2 received equal volumes of sterile saline and sorbinil, respectively. Similarly AR knock out mice also were treated with azoxymethane (10 mg/kg body weight i.p.) once a week for 3 weeks. After 9 weeks all mice were killed by CO2 euthanasia. The colons were removed, flushed with saline and opened from anus to cecum and fixed flat between two pieces of filter paper in 10% buffered formalin for 24 h. Colons were stained with 0.2% methylene blue dissolved in saline and the numbers of aberrant crypts foci (ACF) were counted under a microscope at 200× magnification.
BALB/C mice were injected with azoxymethane or saline and treated with and with out AR inhibitor, sorbinil as described in Example 2. At the early preneoplastic stage (9 weeks after first azoxymethane injection), mice were sacrificed and their colons were removed and analyzed microscopically for the presence of ACF. […]

mice = conditions: for survival: sorbinil pre-treatment
Description: Therefore increasing doses of LPS was administered to determine the dose at which fifty percent lethality occurred (LD50) in the presence or absence of aldose reductase inhibitor (ARI) in order to determine if ARI protected mice for LPS-induced death (FIG. 7D).

RAW264.7 macrophages = assay: LPS- and lipid aldehyde-induced signaling in RAW264.7 macrophages; type: cell-based; parameters: HNE and protein-HNE adduct levels: dose or concentration left out as unconfirmed
Description: At the indicated times, cells were harvested for measurement of HNE (FIG. 5A), protein-HNE adducts (FIG. 5B), NF-kB (FIG. 5C), and TNF-a and IL-6 (FIG. 5D) as described in the methods. Cells were growth arrested as described above or transfected with control or AR siRNA oligonucleotides, incubated with GS-HNE-ester, or GS-DHN-ester (1 mM), and harvested for determination of NF-kB (FIG. 5E), membrane-bound total PKC (FIG. 5F).
To determine if GS-DHN serves as a cellular sensor of ROS-induced insults, its effects on phosphorylation events upstream of IKK/NF-κB activation in RAW264.7 macrophages was examined.

Caco-2 cells [3] = assay: Western blot of Cox-1 and Cox-2 in Caco-2 cells; type: cell-based, human
Description: To examine expression of any of Cox-1, Cox-2, phospho-PKC-2, GAPDH, E2F1, Cyclin D1, Cyclin E, and iNOS proteins, Western blot analyses were carried by known methods (15). Equal amounts of protein from cell extracts were subjected to 12% SDS-PAGE followed by transfer of proteins to nitrocellulose filters, probing with the indicated antibodies, and the antigen-antibody complex was detected by enhanced chemiluminescence (Pierce, Piscataway, N.J., USA).

C57BL/6 mice = assay: LPS-induced cytokines in serum and heart of mice; type: in vivo, mouse
Description: At the indicated times, TNF-a, IL-6, IL-12, interferon (IFN)-g, IL-1b, and monocyte chemo attractant protein (MCP)-1 levels in serum and in heart homogenates were determined (FIGS. 6A-6D). Prostaglandin E2 (PGE-2), cyclo-oxygenase 2 (COX-2), and nitrate levels were measured separately (FIG. 6E). Solid symbols, values from the mice injected with LPS; open symbols, values from the mice treated with LPS and sorbinil.
In sorbinil-treated mice, however, serum cytokine levels increased only 2-fold, began declining within 4 h, and returned to baseline levels within 12 h.

Caco-2 cells [4] = assay: Reactive oxygen species in Caco-2 cells (DCFH-DA); type: cell-based, human; conditions: 20 μM, FGF or PDGF 10 ng/ml 60 min
Description: Caco-2 cells were plated in a 24-well plate at a density of 1.5×10^4 cells/well in DMEM and then serum-starved at 60-70% confluence in the absence and presence of 20 μM sorbinil or tolrestat for overnight in phenol red-free DMEM supplemented with 0.1% FBS. Cells were then pre-incubated for 30 min with the ROS-sensitive fluorophore 2′,7′-dichlorofluorescein diacetate (DCFH-DA), which is taken up and oxidized to the fluorescent dichlorofluorescein by intracellular ROS. After incubation with DCFH-DA, the cells were exposed to FGF or PDGF 10 ng/ml for 60 min and fluorescence was measured with a CytoFluorII fluorescence plate reader (PerSeptive Biosystems, Inc., Framingham, Mass.) at excitation of 485 nm and emission of 528 nm.

[5] = sorbinil pretreatment, LPS 4 mg/kg

With “(S)-6-fluorospiro[chroman-4,4′-imidazolidine]-2,5′-dione [sorbinil]” the “constitutive levels of PGE2” value (HT29 cells [1]) was “did not inhibit”, the HT29 cells proliferation (HT29 cells [2]) was “did not cause any effect” and the “azoxymethane-induced Cox-2 and iNOS expression in mice colons” value (BALB/C mice) was “inhibits”. The “number of average ACF/colon” value (BALB/C mice; azoxymethane+sorbinil 25 mg/kg body weight per day) was 2.4±0.5, the “LD50 for LPS with sorbinil post-treatment” value (mice; sorbinil 2 h after LPS, 48 h survival) was 20 mg/kg and the “LD50 for LPS with sorbinil pre-treatment” value (mice; sorbinil 24 h before LPS, 48 h survival) was 24 mg/kg. For the same substance, the survival (mice; LPS 14 mg/kg) was “approximately 90%”, the survival (mice; LPS 24 mg/kg) was “over 60%” and the “HNE and protein-HNE adduct levels” value (RAW264.7 macrophages) was “increased”. For the same substance, the “ability of GS-DHN to activate NF-κB” value (RAW264.7 macrophages) was “had no effect”, the “effects of HNE/GS-HNE on IKK-a/b phosphorylation and NF-kB translocation” value (RAW264.7 macrophages) was “significantly blunted” and the “LPS-induced NF-κB and cytokine activation” value (RAW264.7 macrophages; LPS 1 mg/ml, sorbinil 10 mM) was “significantly decreased”. For the same substance, the “growth factor-induced Cox-2 protein” value (Caco-2 cells [3]) was “attenuated”, the “levels of constitutive Cox-1 protein” value (Caco-2 cells [3]) was “not affected” and the “GS-DHN-induced Cox-2 expression” value (Caco-2 cells [3]; sorbinil 24 h, GS-DHN-ester 24 h) was “had no effect”. The “HNE and GS-HNE-induced Cox-2 expression” value (Caco-2 cells [3]; sorbinil 24 h, aldehydes 24 h) was “significantly prevented”, the “maladaptive systemic inflammatory response in serum” value (C57BL/6 mice; sorbinil 2 h after LPS exposure) was “blunted” and the “time at which serum cytokine levels began declining” value (C57BL/6 mice; [5]) was ≤ 4 h. The “time at which serum cytokine levels returned to baseline” value (C57BL/6 mice; [5]) was ≤ 12 h, the “increase of serum cytokine levels after LPS” value (C57BL/6 mice; sorbinil pretreatment, LPS 4 mg/kg peritoneally) was 2 fold and the “growth factor-induced increase in ROS” value (Caco-2 cells [4]) was “inhibited”.
